Literature values as cited in article PMC3653137 (Molecular pharmaceutics, 2013).
Residues, ends and D or L forms follow the SMILES beside them.

Experiments:
[1] = test system: SK-OV-3 cells; conditions: [WR]4 alone at similar concentrations
[2] = test system: CCRF-CEM cells; conditions: [WR]4 alone at similar concentrations
[3] = test system: HCT-116 cells; conditions: [WR]4 alone at similar concentrations
[4] = test system: BT-20 cells; conditions: BT-20 human breast carcinoma cells

fold enhancement of cellular delivery of F′-GpYEEI by the carrier peptide [4] [fold] | Molecule | cytotoxicity in SK-OV-3 cells [1] | cytotoxicity in CCRF-CEM cells [2] | cytotoxicity in HCT-116 cells [3]
– | N=C(N)NCCC[C@@H]1NC(=O)[C@H](Cc2c[nH]c3ccccc23)NC(=O)[C@H](CCCNC(=N)N)NC(=O)[C@H](Cc2c[nH]c3ccccc23)NC(=O)[C@H](CCCNC(=N)N)NC(=O)[C@H](Cc2c[nH]c3ccccc23)NC(=O)[C@H](CCCNC(=N)N)NC(=O)[C@H](Cc2c[nH]c3ccccc23)NC1=O [[WR]4] (cyclo(RWRWRWRW)) | not cytotoxic | not cytotoxic | not cytotoxic
10 | Lys-(CH2)11-Arg-(CH2)11-Arg [LPA4] | – | – | –
